Tests used:
[1] = molecular target: T1, HCV genotype 1b NS3-4A protease WT (Hepatitis C virus genotype 1b, UniProt Q9WMX2); test: FRET enzyme inhibition assay, NS3 WT (SensoLyte 520 HCV protease assay Kit); type: biochemical, hepatitis C virus (HCV) genotype 1b
T1 construct: covalently joined to the NS3 protease domain (aa 1-182) via an amino acid linker GSGS; 6x histidine tag (N); TEV protease cleavage site (N); NS4A central peptide (NS4A aa 21-32), fused N-terminally of NS3; made in house; host or cells: E. coli BL21 (λDE3)
Text: (§1) The HCV genotype 1b NS3-4A protease domain from the plasmid pFKI389 Luc-ubi-neo/NS3-3'/ET (kindly provided by Dr. Ralf Bartenschlager) was amplified with the antisense primer 5'-[…]-3'containing a BamHI enzyme restriction site and the sense primer 5'-[…]-3' containing a HindIII enzyme restriction site. This fragment was cloned into a pET21dhis-TEV bacterial expression vector (a pET21d plasmid, which was modified to codify a 6x histidine tag followed by a cleavage site recognized by the Tobacco Etch virus nTev protease at the protein N-terminus). The single chain NS3-4A protease contains the protease domain (182 amino acids) and a 20-aa portion of the cofactor NS4A ([Abrahim-Vieira et al., 2014]).
Protein expressions were carried out as described previously with some modifications to simplify techniques and to perform the protocol in a smaller inoculum volume ([Abrahim-Vieira et al., 2014]). Transformed BL21 (λDE3) cells were grown at 37°C in 500 mL of LB medium containing […] ampicilin until an OD600 of 0.6-0.8 was reached. Then, cultures were induced with 0.5 mM isopropyl-1-thio-β-D-galactopyranoside (IPTG) and incubated with shaking at 25 °C for 4 h. Cells expressing NS3-4A constructs were harvested by centrifugation and stored at −80 °C. […] Purified NS3-4A constructs were quantified with Micro BCA Protein Assay Kit (Thermo Scientific). […]

[2] = system: HCV NS3-4A protease V170I; conditions: mutant V170I vs NS3 WT
Text: as §1
(§2) Protein expressions were carried out as described previously with some modifications to simplify techniques and to perform the protocol in a smaller inoculum volume ([Abrahim-Vieira et al., 2014]). Transformed BL21 (λDE3) cells were grown at 37°C in 500 mL of LB medium containing […] ampicilin until an OD600 of 0.6-0.8 was reached. Then, cultures were induced with 0.5 mM isopropyl-1-thio-β-D-galactopyranoside (IPTG) and incubated with shaking at 25 °C for 4 h. Cells expressing NS3-4A constructs were harvested by centrifugation and stored at −80 °C. All resuspension steps were performed at 4 °C. Frozen pellets were resuspended in 12.5 mL of buffer A (Tris-HCl 50 mM pH 7.5; NaCl 300 mM; 2 mM β-mercaptoethanol; 10% glycerol; 0.5% Triton X-100). After resuspension, lysates were treated with lysozyme (5 mg/mL) for 1 h with stirring, subjected to 20 cycles of 15 s of sonication and 30 s of resting. Lysates were cleared by centrifugation at 12.000 g for 30 min and the supernatant filtered with 0.22 μM filter units (Nalgene). After filtration, supernatants were applied in 2 mL of Ni-NTA Agarose (Life Technologies) previously washed with distilled water and equilibrated with buffer A. Agarose resin was washed three times with buffer A and recombinant proteins were eluted with buffer A with 125, 250 and 500 mM imidazol (buffer B). […] Fractions were pooled and dialyzed overnight against buffer A with SnakeSkin Dialysis Tubing 10K MWCO (Thermo Scientific). Purified NS3-4A constructs were quantified with Micro BCA Protein Assay Kit (Thermo Scientific).
(§3) All enzyme inhibition assays were performed in nonbinding black surface 96-well plates (Corning).

HCV NS3-4A protease V36M = conditions: mutant V36M vs NS3 WT
Text: as §1, §2, §3

HCV NS3-4A protease T54A = conditions: mutant T54A vs NS3 WT
Text: as §1, §2, §3

[3] = system: HCV NS3-4A protease V158I; conditions: mutant V158I vs NS3 WT
Text: as §1, §2, §3

[4] = system: HCV NS3-4A protease T54S + V170I; conditions: mutant T54S + V170I vs NS3 WT
Text: as §1, §2, §3

T1 sequence (Q9WMX2 1027-1208 limits assumed): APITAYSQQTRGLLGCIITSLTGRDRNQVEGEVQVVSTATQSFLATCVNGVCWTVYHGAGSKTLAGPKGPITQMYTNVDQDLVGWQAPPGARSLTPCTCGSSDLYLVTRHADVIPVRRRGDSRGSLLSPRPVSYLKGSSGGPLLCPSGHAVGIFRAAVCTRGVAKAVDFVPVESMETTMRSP

Compound | IC50 [1] | fold change (mutant IC50 median/WT IC50 median) [2] | fold change (mutant IC50 median/WT IC50 median) (HCV NS3-4A protease V36M) | fold change (mutant IC50 median/WT IC50 median) (HCV NS3-4A protease T54A) | fold change (mutant IC50 median/WT IC50 median) [3] | fold change (mutant IC50 median/WT IC50 median) [4]
CCC[C@H](NC(=O)[C@@H]1[C@H]2CCC[C@H]2CN1C(=O)[C@@H](NC(=O)[C@@H](NC(=O)c1cnccn1)C1CCCCC1)C(C)(C)C)C(=O)C(=O)NC1CC1 [Telaprevir] | 130 nM | – | – | – | – | –
COc1ccc2c(O[C@@H]3C[C@H]4C(=O)N[C@]5(C(=O)NS(=O)(=O)C6CC6)C[C@H]5/C=C\CCCCN(C)C(=O)[C@@H]4C3)cc(-c3nc(C(C)C)cs3)nc2c1C [Simeprevir] | 17 nM | 3.2 fold | 0.4 fold | 6.3 fold | 0.1 fold | 3.8 fold
